Measurements published in patent US6403602B1 (priority 1997, dated 2002).
“Also recorded” adds a separate entry of the source. Structures can show the parent of a compound that is named as a salt. Where two headings read alike, the source gives them in different places.

Tests used:
kappa3 receptors = format: binding, guinea pig; details: for Ki: read-out: Ki κ3 [^3H]NalBzoH
kappa1 sites = biological target: T1, kappa1 sites (Cavia porcellus, UniProt P41144); test: biochemical; format: binding, guinea pig
T1 construct: The brains were then homogenized in 50 mM Tris HCl, buffer pH 7.7, using a Polytron; from tissue; host or cells: guinea pig brain homogenate (membrane pellet)
T1 sequence (P41144 whole entry): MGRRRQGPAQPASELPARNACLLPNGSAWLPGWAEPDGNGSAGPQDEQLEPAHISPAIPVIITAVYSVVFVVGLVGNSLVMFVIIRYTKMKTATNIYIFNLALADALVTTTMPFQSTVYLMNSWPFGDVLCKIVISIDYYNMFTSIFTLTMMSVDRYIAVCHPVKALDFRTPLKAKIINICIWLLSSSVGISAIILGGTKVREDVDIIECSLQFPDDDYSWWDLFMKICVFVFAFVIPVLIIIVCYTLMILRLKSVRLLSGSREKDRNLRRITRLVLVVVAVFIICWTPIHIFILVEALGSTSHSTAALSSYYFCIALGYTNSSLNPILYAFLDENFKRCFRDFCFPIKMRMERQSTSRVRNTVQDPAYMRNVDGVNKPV

κ opioid receptor = biological target: T2, κ opioid receptor (Cavia porcellus, UniProt P41144); test: Antagonist activity (pA2) at κ in the functional assays; format: cell-based
T2 construct: from tissue; host or cells: organ-bath tissue, probably guinea pig ileum
T2 sequence (P41144 whole entry): as above

κ2 sites = format: binding, guinea pig
δ opioid receptor = biological target: T3, δ opioid receptor (Mus musculus, UniProt P32300); test: Antagonist activity (pA2) at δ in the functional assays; format: cell-based
T3 construct: from tissue; host or cells: organ-bath tissue, probably mouse vas deferens
T3 sequence (P32300 whole entry): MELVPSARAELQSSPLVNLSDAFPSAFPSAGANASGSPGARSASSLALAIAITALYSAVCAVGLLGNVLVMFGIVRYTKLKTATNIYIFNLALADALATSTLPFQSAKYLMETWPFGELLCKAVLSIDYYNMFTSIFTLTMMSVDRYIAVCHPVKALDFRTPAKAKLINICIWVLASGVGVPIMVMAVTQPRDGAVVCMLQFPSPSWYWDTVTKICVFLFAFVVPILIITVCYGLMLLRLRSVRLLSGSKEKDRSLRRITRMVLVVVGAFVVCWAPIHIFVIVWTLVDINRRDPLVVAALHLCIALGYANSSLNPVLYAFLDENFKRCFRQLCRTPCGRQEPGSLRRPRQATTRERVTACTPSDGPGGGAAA

kappa receptors = biological target: T4, kappa receptors (Cavia porcellus, UniProt P41144); format: cell-based, guinea pig
T4 construct: The longitudinal muscle with the myenteric plexus attached was gently separated from the underlying circular muscle; from tissue; host or cells: guinea pig ileum longitudinal muscle with myenteric plexus
T4 sequence (P41144 whole entry): as the sequence (P41144 whole entry) above

[1] = system: electrically stimulated guinea pig ileum; test: tissue or blood; format: cell-based
mu receptors = format: cell-based, guinea pig
[2] = system: electrically stimulated mouse vas deferens; test: tissue or blood; format: cell-based
delta receptors = biological target: T5, delta receptors (Cavia porcellus, UniProt A0A286XTF2); test: biochemical; format: binding, guinea pig
T5 construct: The brains were then homogenized in 50 mM Tris HCl, buffer pH 7.7, using a Polytron; from tissue; host or cells: guinea pig brain homogenate (membrane pellet)
T5 sequence (A0A286XTF2 1-366): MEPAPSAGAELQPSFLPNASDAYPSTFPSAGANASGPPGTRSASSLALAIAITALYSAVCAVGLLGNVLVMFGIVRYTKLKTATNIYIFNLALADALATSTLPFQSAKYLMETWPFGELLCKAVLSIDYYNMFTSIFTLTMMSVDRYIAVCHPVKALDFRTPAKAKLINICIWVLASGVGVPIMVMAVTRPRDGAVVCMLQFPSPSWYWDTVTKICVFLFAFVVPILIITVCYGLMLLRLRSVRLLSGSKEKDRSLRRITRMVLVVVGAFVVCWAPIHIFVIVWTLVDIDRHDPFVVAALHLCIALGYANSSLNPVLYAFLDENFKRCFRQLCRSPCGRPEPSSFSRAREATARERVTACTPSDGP

mu opioid receptors = mu opioid receptors (Cavia porcellus, UniProt A0ACM8Q262); format: binding, guinea pig; details: for Ki: read-out: Ki μ [^3H]DAMGO
Sequence of mu opioid receptors (A0ACM8Q262 1-400): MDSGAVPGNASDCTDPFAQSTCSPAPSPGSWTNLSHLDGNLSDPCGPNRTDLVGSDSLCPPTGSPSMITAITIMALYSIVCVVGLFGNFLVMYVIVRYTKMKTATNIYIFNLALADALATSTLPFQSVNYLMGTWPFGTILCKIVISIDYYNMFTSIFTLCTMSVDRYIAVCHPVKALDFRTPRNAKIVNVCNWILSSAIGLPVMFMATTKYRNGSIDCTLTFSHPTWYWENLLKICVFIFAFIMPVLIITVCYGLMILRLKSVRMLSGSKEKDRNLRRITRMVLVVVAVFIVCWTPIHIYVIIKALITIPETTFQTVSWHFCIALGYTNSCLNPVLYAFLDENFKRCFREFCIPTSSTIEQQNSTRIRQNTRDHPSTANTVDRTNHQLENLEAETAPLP

nociception (tail-flick) [3] = test: Tail-flick test after intracerebroventricular administration; format: in vivo; details: rat tail-flick
nociception (tail-flick) [4] = test: Tail-flick test after subcutaneous administration; details: rat tail-flick, sc
[5] = Cavia porcellus, read-out: Guinea Pig Ileum IC50 (nM)
[6] = Mus musculus, read-out: Mouse vas deferens maximum inhibition
[7] = read-out: Ki δ, experiment done with [^3H]DPDPE
[8] = dose equimolar to 5 mg/kg morphine

SMILES	Ki (kappa3 receptors) [nM]	Ki (kappa1 sites) [nM]	IC50 (κ2 sites) [nM]	Guinea Pig Ileum DR with Nor-BNI (kappa receptors)	Guinea Pig Ileum Ke of Nor-BNI (kappa receptors)	IC50 [1, 5] [nM]	Guinea Pig Ileum DR with CTAP (mu receptors)	Guinea Pig Ileum Ratio (CTAP) (mu receptors)	Ki (delta receptors) [nM]	Ki (mu opioid receptors) [nM]	Ki (kappa1 sites; read-out: Ki κ1 [^3H]U69,593) [nM]	Ki (delta receptors; [7]) [nM]	other results
Oc1ccc2c3c1O[C@H]1c4[nH]c5ccccc5c4C[C@@]4(O)[C@@H](C2)N(CC2CC2)CC[C@]314 [Naltrindole]	12.4	7.8	540										Kb (κ opioid receptor): 24.5 nM; Kb (δ opioid receptor): 0.012 nM
CC(C)C(=O)Oc1ccc2c3c1O[C@H]1[C@@H](OS(=O)(=O)O)C=C[C@H]4[C@@H](C2)N(C)CC[C@@]341 [NIDA # 20,271, 3-O-Isobutyrylmorphine-6-O-sulfate]	266	4560	> 10000	1.38 ± 0.01	53.14 ± 1.30	1960	9.45 ± 4.31	1.427	584				Guinea Pig Ileum Ratio (Nor-BNI) (kappa receptors): 0.001; Guinea Pig Ileum Ke of CTAP (mu receptors): 13.55 ± 6.89; inhibition at 100 µM [2, 6]: 38%
c1csc(C2(N3CCCCC3)CCCCC2)c1 [TCP-HCl]	> 10000		> 10000							2200	2040	> 10000	
CCC(=O)Oc1ccc2c3c1O[C@H]1[C@@H](OS(=O)(=O)O)C=C[C@H]4[C@@H](C2)N(C)CC[C@@]341 [NIDA # 20,270, 3-O-Propionylmorphine-6-O-sulfate]	19.9	252	> 10000	1.26 ± 0.33	40.73	154 ± 48.6		0.515	40				Guinea Pig Ileum Ratio (Nor-BNI) (kappa receptors): 0.002; Guinea Pig Ileum Ke of CTAP (mu receptors): 37.58 ± 2.09; inhibition at 20 µM [2, 6]: 20%
CN1CC[C@]23c4c5ccc(O)c4O[C@H]2[C@@H](O)C=C[C@H]3[C@H]1C5 [Morphine, morphine]													onset of analgesic response after icv injection (nociception (tail-flick) [3]; higher dose 23.6 μg/4 μl/rat): 6 min
c1ccc(C2(N3CCCCC3)CCCCC2)cc1 [PCP-HCl]	> 10000		> 10000							> 10000	> 10000	> 10000	
C=CCN1CC[C@]23c4c5ccc(O)c4O[C@H]2/C(=N/NC(=O)c2ccccc2)CC[C@@]3(O)[C@H]1C5 [NalBzoH, naloxone benzoylhydrazone]	0.3	0.4	66.5						1.4				Kb (κ opioid receptor): 17.4 nM; Kb (δ opioid receptor): 17.4 nM
C=CCN1CC[C@@]2(C)c3cc(O)ccc3CC1[C@@H]2C.Cl (single isomer, unassigned; (-)) [(−) SKF 10,047-HCl]			132	273.10	0.08 ± 0.01		0.44 ± 0.02			0.7	0.3	3.8	IC50 ([1]; read-out: Guinea Pig Ileum IC50): 10.5 nM
C=CCN1CC[C@@]2(C)c3cc(O)ccc3C[C@@H]1[C@@H]2C [(+) SKF 10,047-HCl]	> 1000		> 10000							2120	2890	> 10000	
CC1C2Cc3ccc(O)cc3C1(C)CCN2CC1CC1 (single isomer, unassigned; (+)) [(+) Cyclazocine]	786		> 10000							659	383	> 10000	
CC(=O)Oc1ccc2c3c1O[C@H]1[C@@H](OS(=O)(=O)[O-])C=C[C@H]4[C@@H](C2)[N+](C)(C)CC[C@@]341 [NIDA # 20,269, 3-O-Acetyl-N-methylmorphinium-6-O-sulfate]	400		> 10000						842				Guinea pig ileum, result in words [1]: no activity; also recorded: lacks activity; analgesic activity in words (nociception (tail-flick) [4]; dose equimolar to 5 mg/kg morphine, listed as MM3A6S): devoid of any analgesic properties; also recorded: inactive; Mouse vas deferens, result in words [2]: lacks activity; inhibition at 200 µM [2, 6]: 20%
CN1CC[C@]23c4c5ccc(OC(=O)c6ccccc6)c4O[C@H]2[C@@H](OS(=O)(=O)O)C=C[C@H]3[C@H]1C5 [NIDA # 20,273, 3-O-Benzoylmorphine-6-O-sulfate]	513		> 10000	1.31 ± 0.13	70.73 ± 29.13	658 ± 130	3.68 ± 0.27	0.554	600				Guinea Pig Ileum Ratio (Nor-BNI) (kappa receptors): 0.001; Guinea pig ileum, result in words [1]: inhibited electrically induced twitches; Guinea Pig Ileum Ke of CTAP (mu receptors): 34.92 ± 3.22; analgesic activity in words (nociception (tail-flick) [4]; dose equimolar to 5 mg/kg morphine, listed as M3B6S): gradual onset of weak analgesia; also recorded: inactive; maximum analgesia, % of maximal analgesia (nociception (tail-flick) [4]; equimolar dose, over 4 hours): 27%; inhibition at 100 µM [2, 6]: 29.4%
CN1CC[C@]23c4c5ccc(OC(=O)C(C)(C)C)c4O[C@H]2[C@@H](OS(=O)(=O)O)C=C[C@H]3[C@H]1C5 [NIDA # 20,272, 3-O-Pivaloylmorphine-6-O-sulfate]	11.2	1940	> 10000	1.13 ± 0.01	154.77 ± 16.8	69.3 ± 25	4.50 ± 0.14	0.676	15.2				Guinea Pig Ileum Ratio (Nor-BNI) (kappa receptors): 0.0004; inhibition at 20 µM [2, 6]: 26.2%
CC(C)=CCN1CC[C@]2(C)c3cc(O)ccc3C[C@H]1[C@H]2C [(+) Pentazocine-succinate]	420		5270							595	206	3480	
CN1CC[C@]23c4c5ccc(O)c4O[C@H]2[C@@H](OS(=O)(=O)O)C=C[C@H]3[C@H]1C5 [NIDA # 20,266, Morphine-6-O-Sulfate]	6.3	1190	> 10000	0.87 ± 0.06		67 ± 12.1	5.00 ± 2.16	0.663	18				affinity to mu receptors in words (mu opioid receptors): greater affinity than that of morphine; selectivity for mu-receptors, greater than morphine (mu opioid receptors): 3 fold; affinity to kappa3 receptors in words (kappa3 receptors): greater affinity than that of morphine; selectivity for kappa3 receptors, greater than morphine (kappa3 receptors): 2.2 fold; Guinea pig ileum, result in words [1]: inhibited electrically induced twitches; Guinea Pig Ileum Ke of CTAP (mu receptors): 29.18 ± 15.7; binding to kappa1 sites in words (kappa1 sites): weakly; duration of maximal analgesia (nociception (tail-flick) [3]; icv, molar dose equivalent to the lower dose of morphine): 70 min; analgesic activity in words (nociception (tail-flick) [4]; [8]): maximal analgesic effect similar to morphine; duration of maximal analgesic effect (nociception (tail-flick) [4]; [8]): over 3 hours; affinity to delta receptors in words (delta receptors): greater affinity than that of morphine
